The text below walks through data of paper PMC4756062 (Clinical Pharmacokinetics, 2015).

Entries after “also recorded” stand apart in the source; their conditions may differ. Like-named read-outs stand apart in the source and are kept apart here.

Data set [1] is classed as in vivo, human (breast cancer patients). The conditions noted are these: for AUC(0-t): AUC0–24, plasma; for C trough: concentration before dosing; for C trough / C trough, ratio of weak to potent CYP2D6-inhibiting SSRI: 10 patients.
A short description of data set [2]: Adverse effects recorded during the antidepressant switch study. It counts as in vivo, human (breast cancer patients).
The mark [3] stands for this setting: female, human, plasma, tamoxifen + potent CYP2D6-inhibiting SSRI (paroxetine or fluoxetine), median (range), dose corrected to 20 mg tamoxifen.
[4] abbreviates: female, human, plasma, C max, plasma, tamoxifen + potent CYP2D6-inhibiting SSRI (paroxetine or fluoxetine), median (range), dose corrected to 20 mg tamoxifen.
Where [5] appears, read: plasma, tamoxifen + potent CYP2D6-inhibiting SSRI (paroxetine or fluoxetine), median (range).
Where [6] appears, read: plasma, after versus before the switch, median (range).
The mark [7] stands for this setting: plasma, tamoxifen + potent CYP2D6-inhibiting SSRI (paroxetine or fluoxetine), median (range), dose corrected to 20 mg tamoxifen.
[8] abbreviates: after versus before the switch, median (range).
Setting [9] is: plasma, switch from paroxetine/fluoxetine to escitalopram.
The mark [10] stands for this setting: tamoxifen + potent CYP2D6-inhibiting SSRI (paroxetine or fluoxetine), median (range).

On to `CC/C(=C(\c1ccccc1)c1ccc(OCCN(C)C)cc1)c1ccccc1` [Tamoxifen, reference compound], for which the AUC(0-t) in data set [1] (setting [3]) came out at 6.42 µM·h. The Cmax in data set [1] (setting [4]) was 369 nM. Besides, the C trough in data set [1] (setting [5]) was 278 (128–557) nM.
As for `CC/C(=C(\c1ccccc1)c1ccc(OCCNC)cc1)c1ccccc1` [ND-Tam, N-desmethyltamoxifen], the C trough in data set [1] (setting [5]) is recorded as 446 (306–807) nM. In data set [1] (setting [6]), the “AUC0–24, ratio of weak to potent CYP2D6-inhibiting SSRI” value is given as 1.09 (0.75–1.27); the “C max, ratio of weak to potent CYP2D6-inhibiting SSRI” value is 1.09 (0.77–1.75); the “C trough, ratio of weak to potent CYP2D6-inhibiting SSRI” value is on record as 0.97 (0.76–1.37). In data set [1] (setting [7]), the “AUC0–24” value is given as 10,149 (7744–20,107) nM·h and the Cmax was 528 nM.
Take `CN(C)CCC[C@@]1(c2ccc(F)cc2)OCc2cc(C#N)ccc21` [escitalopram, S-citalopram]: the Hot flashes result in data set [2] (tamoxifen-treated women, during co-administration) was “hot flashes were reported particularly during escitalopram co-administration”. Further, in data set [2] (tamoxifen-treated women, escitalopram 10–20 mg/day, cross-tapering), the “Safety of switching from paroxetine/fluoxetine to escitalopram (antidepressant-related adverse events, psychiatric relapse)” value is “safe and feasible; also recorded: No antidepressant-related adverse events or psychiatric relapse were noted”. For the same compound, in data set [2] (ten tamoxifen-treated women), the Discontinuation of treatment result is given as “None of the ten women had to discontinue”.
As for `CC/C(=C(\c1ccc(O)cc1)c1ccc(OCCN(C)C)cc1)c1ccccc1` [4-OH-Tam, 4-hydroxytamoxifen], in data set [1] (setting [8]), the “AUC0–24 ratio 4-OH-Tam to tamoxifen, ratio of weak to potent CYP2D6-inhibiting SSRI” value is listed as 1.51 (1.08–1.67). Moreover, the “AUC0–24 ratio 4-OH-Tam to tamoxifen, ratio of weak to potent CYP2D6-inhibiting SSRI” value in data set [1] (after versus before the switch, median (range), listed as 4-hydroxytamoxifen) was ~ 1.5. For the same compound, in data set [1] (setting [3]), the area under the curve AUC(0-t) worked out at 0.0638 µM·h. Further, the Cmax in data set [1] (setting [4]) amounted to 3.46 nM. Further, in data set [1] (setting [5]), the C trough was 2.47 (1.29–4.65) nM. In data set [1] (setting [6]), the “AUC0–24, ratio of weak to potent CYP2D6-inhibiting SSRI” value is reported as 1.34 (0.88–1.87); the “C max, ratio of weak to potent CYP2D6-inhibiting SSRI” value is on record as 1.42 (0.81–2.05); the “C trough, ratio of weak to potent CYP2D6-inhibiting SSRI” value is listed as 1.40 (0.82–2.06). In addition, in data set [1] (setting [9]), the “Increase in AUC0–24 after the switch” value is recorded as 34%, the “Increase in Cmax after the switch” value was 42% and the “Increase in Ctrough after the switch” value amounted to 40%. In data set [1] (setting [10]), the “AUC0–24 ratio 4-OH-Tam to tamoxifen” value is reported as 0.0109 (0.0053–0.014).
Consider `CC/C(=C(\c1ccc(O)cc1)c1ccc(OCCNC)cc1)c1ccccc1` [Endoxifen, 4-hydroxy-N-desmethyl-tamoxifen], for which the “AUC0–24 ratio endoxifen to ND-Tam, ratio of weak to potent CYP2D6-inhibiting SSRI” value in data set [1] (setting [8]) was 3.33 (1.56–5.37). The AUC(0-t) in data set [1] (setting [3]) came out at 0.0992 µM·h. For the same compound, in data set [1] (setting [4]), the Cmax stood at 5.46 nM. Moreover, in data set [1] (one person using 40 mg tamoxifen (dose corrected to 20 mg)), the “Fold higher endoxifen exposure after the switch, single patient” value amounted to 2.9 fold. Also, in data set [1] (setting [5]), the C trough is reported as 5.20 (3.48–10.6) nM. Moreover, in data set [1] (setting [6]), the “C max, ratio of weak to potent CYP2D6-inhibiting SSRI” value was 2.96 (1.50–7.44) and the “C trough, ratio of weak to potent CYP2D6-inhibiting SSRI” value is reported as 2.80 (1.02–6.33). For the same compound, in data set [1] (plasma, after versus before the switch, median (range), listed as endoxifen), the “C max, ratio of weak to potent CYP2D6-inhibiting SSRI” value is ~ 3. Besides, in data set [1] (setting [10]), the “AUC0–24 ratio endoxifen to ND-Tam” value is on record as 0.0113 (0.0065–0.014) and the “AUC0–24 ratio endoxifen to tamoxifen” value is reported as 0.0213 (0.0057–0.029).
